Reference: PubChem BioAssay (NCI)
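Results reflect a 48-hour exposure of cells in 96-well plates to compound at five concentrations. Abbreviation: GI50, concentration required for 50% inhibition of growth. TGI: total growth inhibition.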

Assays:
Assay in all cases: growth of human tumour cells (NCI), 48 h
[1] = tested on: OVCAR-8 ovarian
[2] = tested on: PC-3 prostate
[3] = tested on: SNB-19 CNS
[4] = tested on: U251 CNS
[5] = tested on: M14 melanoma
[6] = tested on: MDA-MB-231 breast
[7] = tested on: A498 renal
[8] = tested on: KM12 colon
[9] = tested on: DU-145 prostate
[10] = tested on: SN12C renal
[11] = tested on: CAKI-1 renal
[12] = tested on: NCI/ADR-RES ovarian
[13] = tested on: EKVX NSCLC
[14] = tested on: RXF 393 renal
[15] = tested on: SF-268 CNS
[16] = tested on: MALME-3M melanoma
[17] = tested on: SW-620 colon
[18] = tested on: COLO 205 colon
[19] = tested on: MCF7 breast
[20] = tested on: T-47D breast
[21] = tested on: NCI-H460 lung
[22] = tested on: OVCAR-3 ovarian
[23] = tested on: NCI-H226 lung
[24] = tested on: UACC-62 melanoma
[25] = tested on: UACC-257 melanoma
[26] = tested on: IGROV1 ovarian
[27] = tested on: SK-MEL-28 melanoma

For `Cc1ccc(NC(C(=O)c2ccccc2)c2ccccc2)cc1` (stereo not drawn), the GI50 [1] was 3.52 µM, the TGI [1] was > 100 µM and the GI50 [2] was 2.78 µM. The TGI [2] was 52.4 µM, the GI50 [3] was 4.26 µM and the TGI [3] was > 100 µM. For the same molecule, the GI50 [4] was 4.24 µM, the TGI [4] was 25.1 µM and the GI50 [5] was 4 µM. For the same molecule, the TGI [5] was 33.4 µM, the GI50 [6] was 13 µM and the TGI [6] was > 100 µM. The GI50 [7] was 2.91 µM, the TGI [7] was 15.5 µM and the GI50 [8] was 2.59 µM. The TGI [8] was 13.4 µM, the GI50 [9] was 3.18 µM and the TGI [9] was 15.4 µM. For the same molecule, the GI50 [10] was 3.55 µM, the TGI [10] was > 100 µM and the GI50 [11] was 10.6 µM. The TGI [11] was 39.7 µM, the GI50 [12] was 18.8 µM and the TGI [12] was > 100 µM. It also gave a GI50 [13] of 1 µM, a TGI [13] of 6 µM and a GI50 [14] of 17.6 µM. The TGI [14] was 46.3 µM, the GI50 [15] was 3.1 µM and the TGI [15] was 14.2 µM. For the same molecule, the GI50 [16] was 2.42 µM, the TGI [16] was 9.52 µM and the GI50 [17] was 3.47 µM. For the same molecule, the TGI [17] was > 100 µM, the GI50 [18] was 3.02 µM and the TGI [18] was 13.7 µM. It also gave a GI50 [19] of 3.79 µM, a TGI [19] of 40.7 µM and a GI50 [20] of 2.02 µM. It also gave a TGI [20] of 11.5 µM, a GI50 [21] of 2.8 µM and a TGI [21] of 11.8 µM. For the same molecule, the GI50 [22] was 3.31 µM, the TGI [22] was 59.9 µM and the GI50 [23] was 18 µM. For the same molecule, the TGI [23] was > 100 µM, the GI50 [24] was 3.93 µM and the TGI [24] was > 100 µM. It also gave a GI50 [25] of 2.8 µM, a TGI [25] of 8.42 µM and a GI50 [26] of 2.11 µM. The TGI [26] was 22.6 µM and the GI50 [27] was 8.07 µM.
